From patent US20230227445A1, “BENZAMIDE COMPOUND AND USE THEREOF” (HUMANWELL HEALTHCARE (GROUP) CO., LTD., priority 2020, published 2023)

Assays:
hP2X3 receptor = molecular target: T1, hP2X3 receptor (Homo sapiens, UniProt P56373); experiment: Antagonistic activity against hP2X3 receptor by FLIPR calcium flow assay; assay type: cell-based; conditions: for IC50: human cells stably transfected with hP2X3, agonist α,β-meATP 400 nM; for antagonistic activity against hP2X3 receptor compared with Reference compound 1 (in words): vs Reference compound 1
T1 construct: expressed in transfected cells
T1 sequence (P56373 1-397): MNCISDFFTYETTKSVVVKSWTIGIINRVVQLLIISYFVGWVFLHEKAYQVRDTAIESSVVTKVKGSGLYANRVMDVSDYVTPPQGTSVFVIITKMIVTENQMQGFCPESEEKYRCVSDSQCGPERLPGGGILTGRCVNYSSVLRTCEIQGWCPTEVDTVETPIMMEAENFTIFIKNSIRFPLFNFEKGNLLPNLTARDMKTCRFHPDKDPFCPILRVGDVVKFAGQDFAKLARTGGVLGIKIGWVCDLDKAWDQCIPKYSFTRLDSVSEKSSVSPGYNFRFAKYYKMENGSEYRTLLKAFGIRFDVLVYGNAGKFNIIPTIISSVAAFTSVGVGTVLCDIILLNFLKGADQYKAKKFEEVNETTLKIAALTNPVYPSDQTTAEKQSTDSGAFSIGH
Procedure: The antagonistic activity of hP2X3 antagonists against hP2X3 receptor was evaluated by means of FLIPR Calcium 4 Assay Kit (Molecular Devices, R8141) and FLIPR TETRA instrument (Molecular Devices, 0296) by detecting calcium flow signals. 24h before the experiment, human cells, which had been stably transfected with hP2X3 receptors, were plated on a 384-well plate at 2×10^5 cells/mL, with 50 μL of cell suspension per well, and the plate was cultured in an incubator (37° C., 5% CO2) for 16 h to 24 h. The test compound solution (20 to 50 mM DMSO stock solution) with a concentration of 180 times the required concentration was prepared using DMSO. The stock solution was added to the 384-well plate at 500 nL per well, supplemented with 30 μL of FLIPR Assay buffer (1×HBSS+2 mM CaCl2 20 mM HEPES containing 1.26 mM Ca^2+). The 384-well plate was shaken for 20 to 40 min to mix evenly. An agonist (α, β-meATP) with a concentration of 3 times the required concentration (required final concentration was 400 nM) was prepared with FLIPR Assay buffer, and was added to another 384-well plate at 45 μL per well. The culture plate, on which the cells were plated one day ago, was taken, the cell supernatant was sucked and discarded, each well was added with 30 μL of Dye (FLIPR® Calcium 4 Assay Kit, diluted with FLIPR buffer), and then the plate was incubated for 1h. 15 μL of compound was added to each well of cells (using FLIPR sample injector). After 15 minutes, 22.5 μL of the agonist was added to each well, and the fluorescence signal (exciting light wavelength ranging from 470 nm to 495 nm, and emission wavelength ranging from 515 nm to 575 nm) was detect. […] An inhibition effect curve of the compound was fitted on the software GraphpadPrism6, and the IC50 value was calculated.

[1] = Pharmacokinetic assay in mouse; assay type: in vivo, ICR mice; conditions: for pharmacokinetic properties in mouse compared with Reference compound 1 and Reference compound 2 (in words): mouse assay, vs Reference compounds 1 and 2; for AUC(0-t) / Cmax / Tmax / half-life: mouse, plasma, po, male ICR mice, intragastric administration, 10 mg/kg; for half-life: read-out: T½ (converted)
Procedure: For a mouse pharmacokinetic assay, male ICR mice (20 g to 25 g) were selected and fasted overnight. Three mice were intragastrically administered with 10 mg/kg of the corresponding compound. The blood of the mice was collected before the administration and at 15 min, 30 min, 1 h, 2 h, 4 h, 8 h, and 24 h after the administration. The blood samples were centrifuged at 4° C. for 6 minutes at 6,800 g, plasma was collected and stored at −80° C.
The supernatant was mixed with 3 times the amount of water, and an appropriate amount of the mixed solution was taken for LC-MS/MS analysis. The primary pharmacokinetic parameters were analyzed by WinNonlin 7.0 software non-atrioventricular model.

rat taste = experiment: Taste test in rat (water vs 0.3 mM aqueous quinine solution intake); assay type: in vivo, SD rats; conditions: for Water/aqueous quinine solution (ratio of water intake to aqueous quinine solution intake): SD rats, 30 mg/kg i.p, 0.3 mM quinine, 15 min supply half an hour after administration; for interference on rat taste compared with Reference compound 1 (in words): vs positive reference compound
Procedure: SD rats were administered with the corresponding compound after 3 days of overnight water prohibition training. Each rat was supplied with 1 bottle of water and 1 bottle of 0.3 mM aqueous quinine solution half an hour after the administration. After 15 min of water supply, the bottles were removed. The intake amount of water and the intake amount of the 0.3 mM aqueous quinine solution were measured, respectively. The taste influence of the compound on SD rats was evaluated based on the difference between the intake amount of water and the intake amount of the aqueous quinine solution.

[2] = system: histamine/citric acid-stimulated cough in guinea pig; experiment: Efficacy test for histamine/citric acid-stimulated cough in guinea pig; assay type: in vivo; conditions: guinea pigs, nasal drops, 0.17 mg/kg to 1.5 mg/kg, histamine/citric acid stimulation
Procedure: Guinea pigs were adaptively fed for 3 days to 7 days before being grouped. When the body weight of the guinea pigs reached 300 g to 400 g, they were numbered and randomly grouped.
Compounds or an excipient were administered to guinea pigs by nasal drops 0.25 hour to 24 hours before the start of the cough assessment. The administration dose of the test sample ranged from 0.17 mg/kg to 1.5 mg/kg. For the cough assessment, the guinea pigs were placed in a whole-body volume scan box for adaptation, and then, they were provided with histamine nebulization and then citric acid nebulization. […]
(§1) The experimental data was statistically analyzed by one-way ANOVA to analyze and compare data of the various groups. The statistical analysis result p<0.05 was regarded as a significant difference. The t-test was employed for difference comparison between any two.

[3] = system: ATP/citric acid-stimulated cough in guinea pig; experiment: Efficacy test for ATP/citric acid-stimulated cough in guinea pig; assay type: in vivo; conditions: guinea pigs, nasal drops, 0.17 mg/kg to 1.5 mg/kg, ATP/citric acid stimulation
Procedure: Guinea pigs were adaptively fed for 3 days to 7 days before being grouped. When the body weight of the guinea pigs reached 300 g to 400 g, they were numbered and randomly grouped. Compounds or an excipient were administered to guinea pigs by nasal drops 0.25 hour to 24 hours before the start of the cough assessment. The administration dose of the test sample ranged from 0.17 mg/kg to 1.5 mg/kg. For the cough assessment, the guinea pigs were placed in a whole-body volume scan box for adaptation, and then provided with ATP nebulization, and a few minutes later, they were provided with citric acid nebulization. The cough times within 15 minutes and the cough latency were recorded from the beginning of citric acid nebulization.
as §1

[4] = Pharmacokinetic assay in canine; assay type: in vivo, Beagle dogs; conditions: for half-life (in words) / clearance rate (in words) / exposure (in words) / pharmacokinetic characteristics compared with the reference compound (in words): canine; for exposure (in words): oral and intravenous administrations; for pharmacokinetic characteristics compared with the reference compound (in words): vs reference compound; for AUC(0-t) / Cmax / Tmax / half-life / clearance / Vd: dog, plasma, male Beagle dogs; for Vd: read-out: Vz
Procedure: For a canine pharmacokinetic assay, male Beagle dogs (8 kg to 10 kg) were selected and fasted overnight. Three Beagle dogs were intragastrically administered with 5 mg/kg of the corresponding compound. Another 3 Beagle dogs were intravenously administered with 1 mg/kg of the corresponding compound. The blood of the dogs was collected before the administration and at 15 min, 30 min, 1 h, 2 h, 4 h, 8 h, and 24 h after the administration. The blood samples were centrifuged at 4° C. for 6 minutes at 8,000 r/min, plasma was collected and stored at −20° C. […] The supernatant was taken and mixed with 3 times the amount of water, and an appropriate amount of the mixed solution was taken for LC-MS/MS analysis. The primary pharmacokinetic parameters were analyzed by WinNonlin 7.0 software non-atrioventricular model.

[5] = Pharmacokinetic assay in rat; assay type: in vivo, SD rats; conditions: rat, plasma, po, male SD rats, intragastric administration, 10 mg/kg
Procedure: For a rat pharmacokinetic assay, male SD rats (180 g to 240 g) were selected and fasted overnight. Three rats were intragastrically administered with 10 mg/kg of the corresponding compound. The blood of the rats was collected before the administration and at 15 min, 30 min, 1 h, 2 h, 4 h, 8 h, and 24 h after the administration. The blood samples were centrifuged at 4° C. for 6 minutes at 8,000 r/min, and plasma was collected and stored at −20° C. Plasma at each time point was taken, and added with 3 to 5 times the amount of an internal standard-containing acetonitrile solution to mix, and the mixture was vortex mixed for 1 minute, and centrifuged at 4° C. for 10 minutes at 13,000 r/min. The supernatant was taken and mixed with 3 times the amount of water, and an appropriate amount of the mixed solution was taken for LC-MS/MS analysis. The primary pharmacokinetic parameters were analyzed by WinNonlin 7.0 software non-atrioventricular model.

[6] = po, intragastric administration, 5 mg/kg
[7] = intravenous administration, 1 mg/kg

Cc1cnc(-c2cc(O[C@@H](C)[C@@H](C)O)cc(C(=O)N[C@H](C)c3cnc(C(F)(F)F)nc3)c2F)s1 [Compound I-27, 2-fluoro-5-(((2S, 3R)-3-hydroxybutan-2-yl)oxy)-3-(5-methylthiazol-2-yl)-N—((R)-1-(2-(trifluoromethyl)pyrimidin-5-yl)ethyl)benzamide]
IC50 (hP2X3 receptor): 67 nM
antagonistic activity against hP2X3 receptor compared with Reference compound 1 (in words) (hP2X3 receptor): better antagonistic activity
pharmacokinetic properties in mouse compared with Reference compound 1 and Reference compound 2 (in words) [1]: significantly improved pharmacokinetic properties
Water/aqueous quinine solution (ratio of water intake to aqueous quinine solution intake) (rat taste): 29.4
interference on rat taste compared with Reference compound 1 (in words) (rat taste): significantly less interference on rat taste
Average cough times within 15 min [2]: 8.9
Average cough times within 15 min [3]: 6.3

Cc1cnc(-c2cc(O[C@H](C)[C@H](C)O)cc(C(=O)N[C@H](C)c3cnc(C(F)(F)F)nc3)c2F)s1 [Compound I-29, 2-fluoro-5-(((2R, 3S)-3-hydroxybutan-2-yl)oxy)-3-(5-methylthiazol-2-yl)-N—((R)-1-(2-(trifluoromethyl)pyrimidin-5-yl)ethyl)benzamide]
IC50 (hP2X3 receptor): 57 nM
antagonistic activity against hP2X3 receptor compared with Reference compound 1 (in words) (hP2X3 receptor): better antagonistic activity
pharmacokinetic properties in mouse compared with Reference compound 1 and Reference compound 2 (in words) [1]: significantly improved pharmacokinetic properties
AUC(0-t) [1]: 14900 ng·h/mL
Cmax [1]: 4100 ng/mL
Tmax [1]: 1 h
half-life [1]: 2.23 h
Water/aqueous quinine solution (ratio of water intake to aqueous quinine solution intake) (rat taste): 12.0
Average cough times within 15 min [2]: 10.8
Cough inhibition rate vs. solvent [2]: 59.4%
half-life (in words) [4]: long half-life
clearance rate (in words) ([4]; intravenous administration): low clearance rate
exposure (in words) [4]: high exposure
pharmacokinetic characteristics compared with the reference compound (in words) [4]: better pharmacokinetic characteristics
AUC(0-t) [4, 6]: 8730 ng·h/mL
Cmax [4, 6]: 1160 ng/mL
Tmax [4, 6]: 1 h
half-life [4, 6]: 7.26 h
AUC(0-t) [4, 7]: 2010 ng·h/mL
clearance [4, 7]: 7.5 mL/min/kg
half-life [4, 7]: 7.64 h
Vd [4, 7]: 5 L/kg

Cc1cnc(-c2cc(O[C@H](C)[C@@H](C)O)cc(C(=O)N[C@H](C)c3cnc(C(F)(F)F)nc3)c2F)s1 [Compound I-30, 2-fluoro-5-(((2R, 3R)-3-hydroxybutan-2-yl)oxy)-3-(5-methylthiazol-2-yl)-N—((R)-1-(2-(trifluoromethyl)pyrimidin-5-yl)ethyl)benzamide]
IC50 (hP2X3 receptor): 48 nM
antagonistic activity against hP2X3 receptor compared with Reference compound 1 (in words) (hP2X3 receptor): better antagonistic activity
pharmacokinetic properties in mouse compared with Reference compound 1 and Reference compound 2 (in words) [1]: significantly improved pharmacokinetic properties
AUC(0-t) [1]: 13800 ng·h/mL
Cmax [1]: 2950 ng/mL
Tmax [1]: 1 h
half-life [1]: 2.35 h
Water/aqueous quinine solution (ratio of water intake to aqueous quinine solution intake) (rat taste): 22.9
interference on rat taste compared with Reference compound 1 (in words) (rat taste): significantly less interference on rat taste
Average cough times within 15 min [2]: 9.8
Cough inhibition rate vs. solvent [2]: 63.2%
Average cough times within 15 min [3]: 7.1
Cough inhibition rate vs. solvent [3]: 64.1%
half-life (in words) [4]: long half-life
clearance rate (in words) ([4]; intravenous administration): low clearance rate
exposure (in words) [4]: high exposure
pharmacokinetic characteristics compared with the reference compound (in words) [4]: better pharmacokinetic characteristics
AUC(0-t) [4, 6]: 12600 ng·h/mL
Cmax [4, 6]: 1030 ng/mL
Tmax [4, 6]: 1 h
half-life [4, 6]: 13.4 h
AUC(0-t) [4, 7]: 2820 ng·h/mL
clearance [4, 7]: 4.33 mL/min/kg
half-life [4, 7]: 13 h
Vd [4, 7]: 4.88 L/kg

Cc1cnc(-c2cc(O[C@@H]3CCOC3)cc(C(=O)N[C@H](C)c3cnc(C(F)(F)F)nc3)c2)s1 [Reference compound 1, reference compound]
AUC(0-t) [5]: 3330 ng·h/mL
Cmax [5]: 417 ng/mL
Tmax [5]: 2 h
half-life ([5]; read-out: T½ (converted)): 4.01 h
Average cough times within 15 min [3]: 8.1
